Experimental data published in US20200369728A1, “PEPTIDOMIMETIC MACROCYCLES AND USES THEREOF” (Aileron Therapeutics, Inc., priority 2015, published 2020).
Bridge positions count the residues as written; N and C are the ends. Square brackets hold non-standard residues; d marks the D form. Peptide text beside a SMILES is read from it. Phe(3,4-F2) = N[C@@H](Cc1ccc(F)c(F)c1)C(=O)O; R8 = C=CCCCCCC[C@@](C)(N)C(=O)O; Cba = N[C@@H](CC1CCC1)C(=O)O; S5 = C=CCCC[C@](C)(N)C(=O)O; Nle = CCCC[C@H](N)C(=O)O

Assays:
[1] = test system: SJSA-1 cells; assay: Cell lysis by peptidomimetic macrocycles (LDH release); assay type: cell-based; conditions: SJSA-1, 1 h
Summary of the method: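 SJSA-1 cells plated the day before, switched to RPMI with 1% FBS, then exposed 1 h at 37 °C to macrocycle at final 50 μM to 6.25 μM in 0.5% DMSO. LDH released into the supernatant was measured by kit. Controls: 0.5% DMSO (non-lytic), 10 μM melittin and 1% Triton X-100 (lytic).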

[2] = test system: Caspase 3; assay: Caspase 3 detection assay in SJSA1 cells; assay type: cell-based; conditions: SJSA1, 48 h, Caspase 3 activation over DMSO-treated cells

SMILES | 6.25 μM % Lysed cells (1 h LDH) [1] [%] | 25 μM % Lysed cells (1 h LDH) [1] [%] | 50 μM % Lysed cells (1 h LDH) [1] [%] | caspase 0.3 μM [2] | caspase 1 μM [2] | caspase 3 μM [2] | caspase 10 μM [2] | caspase 30 μM [2]
CC(=O)N[C@@H](CC(C)C)C(=O)N[C@H](C(=O)N[C@@H](Cc1ccccc1)C(=O)N[C@]1(C)CCCCCCC=CCCC[C@@](C)(C(=O)N[C@@H](C)C(=O)N[C@@H](C)C(=O)N[C@@H](C)C(=O)N[C@@H](C)C(=O)N[C@@H](C)C(=O)N[C@@H](C)C(=O)N[C@H](C)C(N)=O)NC(=O)[C@H](CC(C)C)NC(=O)[C@H](CCC(N)=O)NC(=O)[C@H](C)NC(=O)[C@H](Cc2c[nH]c3ccccc23)NC(=O)[C@H](Cc2ccc(O)cc2)NC(=O)[C@H](C)NC1=O)[C@@H](C)O (single isomer, unassigned) [compound 317] | 0 | 0 | 0 | 3 | 4 | 9 | 26 | 35
CC[C@H](C)[C@H](NC(=O)[C@H](C)NC(=O)[C@H](C)NC(=O)[C@]1(C)CCCC=CCCCCCC[C@@](C)(NC(=O)[C@H](Cc2ccccc2)NC(=O)[C@@H](NC(=O)[C@H](CC(C)C)NC(C)=O)[C@@H](C)O)C(=O)N[C@@H](CCC(=O)O)C(=O)N[C@@H](Cc2c[nH]cn2)C(=O)N[C@@H](Cc2c[nH]c3ccccc23)C(=O)N[C@@H](C)C(=O)N[C@@H](CCC(N)=O)C(=O)N[C@@H](CC(C)C)C(=O)N1)C(=O)N[C@H](C)C(N)=O (single isomer, unassigned) [compound 223] | −2 | −4 | −1 | 1 |  | 1 | 5 | 18
CC(=O)N[C@@H](CC(C)C)C(=O)N[C@H](C(=O)N[C@@H](Cc1ccccc1)C(=O)N[C@]1(C)CCCCCCC=CCCC[C@@](C)(C(=O)N[C@@H](C)C(=O)N[C@@H](C)C(=O)N[C@@H](C)C(=O)N[C@@H](C)C(=O)N[C@@H](C)C(=O)N[C@H](C)C(N)=O)NC(=O)[C@H](CC2CCC2)NC(=O)[C@H](CCC(N)=O)NC(=O)[C@H](C)NC(=O)[C@H](Cc2c[nH]c3ccccc23)NC(=O)[C@H](Cc2ccc(O)cc2)NC(=O)[C@H](CCC(=O)O)NC1=O)[C@@H](C)O (single isomer, unassigned) [compound 347] | 0 | 0 | 0 | 2 | 3 | 5 | 8 | 29
CCCC[C@H](NC(=O)[C@H](C)NC(=O)[C@H](C)NC(=O)[C@]1(C)CCCC=CCCCCCC[C@@](C)(NC(=O)[C@H](Cc2ccccc2)NC(=O)[C@@H](NC(=O)[C@H](CCC(=O)O)NC(C)=O)[C@@H](C)O)C(=O)N[C@@H](C)C(=O)N[C@@H](Cc2ccc(O)cc2)C(=O)N[C@@H](Cc2c[nH]c3ccccc23)C(=O)N[C@@H](C)C(=O)N[C@@H](CCC(N)=O)C(=O)N[C@@H](CC2CCC2)C(=O)N1)C(=O)N[C@@H](C)C(N)=O [compound 237] (Ac-ETF[R8]AYWAQ[Cba][S5]AA[Nle]A-NH2; staple 4-11) | 0 | 7 | 55 | 1 |  | 5 | 9 | 15
CC(=O)N[C@@H](CC(C)C)C(=O)N[C@H](C(=O)N[C@@H](Cc1ccccc1)C(=O)N[C@]1(C)CCCCCCC=CCCC[C@@](C)(C(=O)N[C@@H](C)C(=O)N[C@@H](C)C(=O)N[C@@H](Cc2ccccc2)C(=O)N[C@H](C)C(N)=O)NC(=O)[C@H](CC(C)C)NC(=O)[C@H](CCC(N)=O)NC(=O)[C@H](C)NC(=O)[C@H](Cc2c[nH]c3ccccc23)NC(=O)[C@H](Cc2ccc(O)cc2)NC(=O)[C@H](CCC(=O)O)NC1=O)[C@@H](C)O (single isomer, unassigned) [compound 218] | 0 | −4 | 1 | 1 |  | 2 | 8 | 18
CC(=O)N[C@@H](CC(C)C)C(=O)N[C@H](C(=O)N[C@@H](Cc1ccccc1)C(=O)N[C@]1(C)CCCCCCC=CCCC[C@@](C)(C(=O)N[C@@H](C)C(=O)N[C@@H](C)C(=O)N[C@@H](C)C(=O)N[C@@H](C)C(=O)N[C@@H](C)C(=O)N[C@@H](C)C(=O)N[C@H](C)C(N)=O)NC(=O)[C@H](CC(C)C)NC(=O)[C@H](CCC(N)=O)NC(=O)[C@H](C)NC(=O)[C@H](Cc2c[nH]c3ccccc23)NC(=O)[C@H](Cc2ccc(O)cc2)NC(=O)[C@H](CCC(=O)O)NC1=O)[C@@H](C)O (single isomer, unassigned) [compound 343] | 0 | 0 | 0 | 1 | 1 | 2 | 5 | 29
CC(=O)N[C@@H](CC(C)C)C(=O)N[C@H](C(=O)N[C@@H](Cc1ccccc1)C(=O)N[C@]1(C)CCCCCCC=CCCC[C@@](C)(C(=O)N[C@@H](C)C(=O)N[C@@H](Cc2c[nH]cn2)C(=O)N[C@@H](Cc2ccccc2)C(=O)N[C@@H](C)C(N)=O)NC(=O)[C@H](CC(C)C)NC(=O)[C@H](CCC(N)=O)NC(=O)[C@H](C)NC(=O)[C@H](Cc2c[nH]c3ccccc23)NC(=O)[C@H](Cc2c[nH]cn2)NC(=O)[C@H](C)NC1=O)[C@@H](C)O [compound 183] (Ac-LTF[R8]AHWAQL[S5]AHFA-NH2; staple 4-11) | 2 | 0 | 3 | 1 |  | 1 | 4 | 8
CCCC[C@H](NC(=O)[C@H](C)NC(=O)[C@H](CO)NC(=O)[C@]1(C)CCCC=CCCCCCC[C@@](C)(NC(=O)[C@H](Cc2ccc(F)c(F)c2)NC(=O)[C@@H](NC(=O)[C@H](CC(C)C)NC(C)=O)[C@@H](C)O)C(=O)N[C@@H](CCC(=O)O)C(=O)N[C@@H](Cc2ccc(O)cc2)C(=O)N[C@@H](Cc2c[nH]c3ccccc23)C(=O)N[C@@H](C)C(=O)N[C@@H](CCC(N)=O)C(=O)N[C@@H](CC2CCC2)C(=O)N1)C(=O)N[C@@H](C)C(N)=O [compound 243] (Ac-LT[Phe(3,4-F2)][R8]EYWAQ[Cba][S5]SA[Nle]A-NH2; staple 4-11) | 4 | 39 | 64 | 1 |  | 2 | 5 | 23
CC(=O)N[C@@H](CC(C)C)C(=O)N[C@H](C(=O)N[C@@H](Cc1ccccc1)C(=O)N[C@]1(C)CCCCCCC=CCCC[C@@](C)(C(=O)N[C@@H](CO)C(=O)N[C@@H](C)C(=O)N[C@@H](C)C(N)=O)NC(=O)[C@H](CC(C)C)NC(=O)[C@H](C)NC(=O)[C@H](C)NC(=O)[C@H](Cc2c[nH]c3ccccc23)NC(=O)[C@H](Cc2c[nH]cn2)NC(=O)[C@H](C)NC1=O)[C@@H](C)O [compound 197] (Ac-LTF[R8]AHWAAL[S5]SAA-NH2; staple 4-11) | 1 | −1 | −2 | 1 |  | 1 | 10 | 20
